From US20250368618A1, “BENZOHETEROCYCLIC SUBSTITUTED TETRAHYDROISOQUINOLINE COMPOUND SALT FORM AND PREPARATION METHOD THEREFOR” (SHANGHAI JEYOU PHARMACEUTICAL CO., LTD., priority 2022, published 2025)

Assays:
[1] = test system: Sprague-Dawley rats; assay: Effect of multiple administrations on serum phosphorus concentration in rats (serum phosphorus, 24-h urinary phosphorus and sodium, fecal form); type: in vivo, rat; settings: for 24-h nP, course: after 15 days; for serum phosphorus concentration: intragastric twice a day
Description: The compound represented by formula (I) was evaluated by measuring the serum phosphorus concentration, concentrations of urinary phosphorus and urinary sodium, and fecal form in rats. Six-week-old Sprague-Dawley rats were purchased from Beijing Vital River Laboratory Animal Technology Co., Ltd. Two rats in each cage were placed in the SPF-grade animal room, and the rats were acclimatized for about one week. Throughout the study, the animals were given ad libitum access to feed and water, and the light cycle was 12 h of light and 12 h of darkness. Animal groups: vehicle group, n=5; Tenapanor 0.05 mg/kg, n=5; compound represented by formula (I) 0.01 mg/kg, n=5; compound represented by formula (I) 0.05 mg/kg, n=5; compound represented by formula (I) 0.5 mg/kg, n=5; and compound represented by formula (I) 1.0 mg/kg, n=5.
After the start of the experiment, the feeding rhythm of the rats was adjusted to diurnal feeding in a manner of overnight fasting for 16 h and restoring feed for 8 h during the day. After the start of administration, the test compound or vehicle (0.5% Tween 80+99.5% distilled water) was administered intragastrically twice a day during the feeding period, with an interval of 4 h, for 14 consecutive days. The body weight of animals and food consumption were measured daily. The serum phosphorus concentration (including baseline values before the administration), 24-hour urinary phosphorus excretion amount, and 24-hour urinary sodium excretion amount were measured 1-2 times a week, and fecal form in the collection funnel was scored (fecal form was assessed by two independent observations). Fecal form scoring criteria: 1. normal pellets; 2. slightly soft feces (pellets adhered to the side wall of the collector due to moisture); 3. soft feces (loss of normal shape of the pellets); 4. loose and amorphous (complete loss of shape, accompanied by a blot pattern); and 5. diarrhea (watery feces). Fecal form score (FFS) in rats was determined by averaging two independent observation scores for all rats in the same group (n=5); and the mean value for the vehicle group was 1.
After being left to stand at room temperature for 2 h, the blood was centrifuged at 4° C. at 4500 g for 10 min; the urine was centrifuged at 4° C. at 3220 g for 5 min; and the serum phosphorus concentration and urinary phosphorus concentration (phosphomolybdic acid ultraviolet endpoint colorimetric method), as well as urinary sodium concentration (indirect ion electrode method) were measured.
(§1) The results were expressed as mean±standard error (Means±SEM), n=5 animals/group. The urinary phosphorus excretion amount (or urinary sodium excretion amount) in the rats was normalized and corrected against the respective dietary phosphorus (or sodium) intake. The formula was as follows: normalized correction value of urinary phosphorus excretion amount (expressed as nP)=urinary phosphorus excretion amount+dietary phosphorus intake; normalized correction value of urinary sodium excretion amount (expressed as nNa)=urinary sodium excretion amount+dietary sodium intake; two-way analysis of variance was adopted; and fecal form score was verified by the non-parametric test. *, p<0.05; ** p<0.01; *** p<0.001; ****, p<0.0001.

[2] = test system: Sprague-Dawley rats; assay: Inhibition of phosphate and sodium absorption in intestinal tract of rats after single administration (urinary phosphorus, urinary sodium, fecal form); type: in vivo, rat; settings: normal rats
Description: The compound represented by formula (I) was evaluated by measuring the concentrations of urinary phosphorus and urinary sodium, as well as fecal form.
Six-week-old Sprague-Dawley rats were purchased from Beijing Vital River Laboratory Animal Technology Co., Ltd. Two rats in each cage were placed in the SPF-grade animal room, and the rats were acclimatized for about one week. Throughout the study, the animals were given ad libitum access to feed and water, and the light cycle was 12 h of light and 12 h of darkness. Animal groups: vehicle group, n=5; tenapanor 0.3 mg/kg group, n=5; compound represented by formula (I) 0.03 mg/kg group, n=5; compound represented by formula (I) 0.1 mg/kg group, n=5; compound represented by formula (I) 0.3 mg/kg group, n=5; and compound represented by formula (I) 1.0 mg/kg group, n=5.
On the day of the experiment, the test compound or vehicle (0.5% Tween 80+99.5% distilled water) was administered intragastrically to the animals after 8 h of fasting. Then, the animals were transferred into metabolism cages for single-cage feeding, and the feed was restored. Sixteen hours after administration, urine samples were collected, food consumption was recorded, and fecal form in the collection funnel was evaluated by two independent observations. Fecal form scoring criteria: 1. normal pellets; 2. slightly soft feces (pellets adhered to the side wall of the collector due to moisture); 3. soft feces (loss of normal shape of the pellets); 4. loose and amorphous (complete loss of shape, accompanied by a blot pattern); and 5. diarrhea (watery feces). Fecal form score (FFS) in rats was determined by averaging two independent observation scores for all rats in the same group (n=5); and the mean value for the vehicle group was 1.
The urine was centrifuged at 4° C. at 3220 g for 5 min, and the urinary phosphorus concentration (phosphomolybdic acid ultraviolet endpoint colorimetric method) and urinary sodium concentration (ion selective electrode method) were measured.
as §1, with “error (Means±SEM).” for “error (Means±SEM), n=5 animals/group.”, “intake; one-way” for “intake; two-way”, “p<0.05; **,” for “p<0.05; **”, “p<0.01; ***,” for “p<0.01; ***”

CN1Cc2c(Cl)cc(Cl)cc2[C@H](c2ccc3cn(CCOCCOCCNC(=O)NCCCCNC(=O)NCCOCCOCCn4cc5ccc([C@@H]6CN(C)Cc7c(Cl)cc(Cl)cc76)cc5n4)nc3c2)C1 [compound represented by formula (I)]
24-h nP ([1]; after 1 day of treatment, 1.0 mg/kg, vs vehicle): significantly reduced | 24-h nP (urinary phosphorus excretion amount normalized to dietary phosphorus intake) ([1]; after 1 day of treatment, 0.01, 0.05, 0.5 and 1.0 mg/kg, vs vehicle): decreasing trend | 24-h nNa (urinary sodium excretion amount normalized to dietary sodium intake) ([1]; after 1 day of treatment, 0.01, 0.05, 0.5 and 1.0 mg/kg, vs vehicle control): significantly reduced | 24-h nP, dose dependence ([1]; after 1 day of treatment, 0.01-1.0 mg/kg): The higher the dose, the lower the nP | fecal form score ([1]; after 1 day of treatment, 0.05, 0.5 and 1.0 mg/kg, vs vehicle control): increased significantly | 24-h nNa, course ([1]; after 10 days of treatment, 0.01 mg/kg and 0.05 mg/kg): rising trend | 24-h nP ([1]; after 10 days of treatment, 0.01, 0.05, 0.5 and 1.0 mg/kg, vs vehicle): significantly reduced | 24-h nP, course [1]: tended to be stable | 24-h nP, course ([1]; low-dose group 0.01 mg/kg): rising trend | loose feces, severity ([1]; high-dose groups 0.5 mg/kg and 1.0 mg/kg): more severe loose feces | frequency of loose feces observed ([1]; high-dose groups 0.5 mg/kg and 1.0 mg/kg, as the administration continued): decreased | serum phosphorus concentration ([1]; after 4 days of treatment, 0.5 mg/kg or 1.0 mg/kg, vs vehicle control): significantly reduced | serum phosphorus concentration ([1]; after 10 days of treatment, 0.01, 0.05, 0.5 and 1.0 mg/kg, vs vehicle control): significantly reduced | loose feces, occurrence ([1]; low dose 0.01 mg/kg): No rats had loose feces | serum phosphorus concentration, course ([1]; twice a day, after 10 days, groups other than the highest dose 1.0 mg/kg): tended to be stable | urinary phosphorus excretion amount (nP) ([2]; single intragastric administration, 0.03, 0.1, 0.3, 1.0 mg/kg, urine 16 h after administration, dose dependence): dose-effect relationship | water content in the feces (fecal form score) ([2]; single intragastric administration, 0.03-1.0 mg/kg, 16 h): tendency to increase with the increase in the dose | urinary phosphorus excretion amount (nP) ([2]; single intragastric administration, doses of 0.3 mg/kg and 1.0 mg/kg, urine 16 h after administration): significantly reduce | urinary phosphorus excretion amount (nP), comparison with Tenapanor ([2]; single intragastric administration, same dose 0.3 mg/kg of both): better than Tenapanor | urinary sodium excretion amount (nNa) ([2]; single intragastric administration, urine 16 h after administration): significantly reduce
